Reference: patent publication US9381254B2, “Methods for preparing polymeric reagents” (Nektar Therapeutics, priority 2005, dated 2016)
Ends that are not written are not given here.

Experiments:
diabetic db/db mice = assay: In-vivo study in mice of blood-glucose lowering effects of GLP-1 polymer conjugates; parameters: species or system mouse; conditions: for blood glucose-lowering effect: single subcutaneous dose (GLP-1 60, 120 μg; conjugates 420 μg), FIG. 14; for PD effect when compared to the 20 kiloDalton PEG conjugate: single subcutaneous dose 420 μg
Protocol: Male diabetic mice (BKS.Cg-+Lepr db/+Lepr db/01aHsd) were purchased from Harlan Laboratories, Ltd. (Jerusalem, Israel). The 8-9 week old animals (30-40 gm) were placed in mouse cages (two animals per cage), and allowed at least 48 hours of acclimatization before the start of the study.
Each compound was accurately weighed into a glass vial and dissolved in normal saline in order to prepare a concentration that would accommodate for the dose (based on GLP-1 equivalents) and the injection volume of 100 μL.
The study was divided into two phases: a feasibility phase and an evaluation phase.
In the feasibility phase, the feasibility of using diabetic db/db mice to test the effectiveness of GLP-1 was first evaluated. In carrying out the feasibility phase, several groups of mice were used wherein four mice were used in each group. Data on the baseline glucose levels were gathered for each mouse for 2-3 days prior to drug dosing. This was performed to identify any outliers in the group of animals. On the day of treatment (Day 0) each animal was weighed. A time 0 day blood sample (5 to 10 μL) was collected from the tail vein. The glucose level (mg/dL) was measured using a glucose analyzer. Each animal was then dosed subcutaneously (SC) below the skin on the back. […] The animals were then allowed to return into their cages. Blood samples of 5 to 10 μL (<0.5% of 2 mL blood volume for a 35 g mouse) were removed through a needle prick/capillary tube at the following time points: −3, −2, −1, 0, 0.04, 0.16, 0.33, 1.0, 1.16 days. Each collected blood sample was tested for its glucose level. At the end of the study, the animals were humanely euthanized by carbon-dioxide asphyxiation.
In the evaluation phase, the results from the feasibility phase were used to select the appropriate doses required to attain a sustained delivery of GLP-1 for a 3-5 day effect. In carrying out the evaluation phase, eight mice were used in each group. Data on the baseline glucose levels were gathered for each mouse three days prior to drug dosing. On the day of treatment (Day 0) each animal was weighed. A time 0 day blood sample (5 to 10 μL) was collected from the tail vein. The glucose level (mg/dL) was measured using a glucose analyzer. Each animal was then dosed subcutaneously (SC) below the skin on the back. […] The animals were then allowed to return into their cages. Blood samples of 5 to 10 μL (<0.5% of 2 mL blood volume for a 35 g mouse) were removed through a needle prick/capillary tube at the following time points: −3, −2, −1, 0, 0.04, 0.16, 0.33, 0.5, 1, 2, 3, 6 days. Each collected blood sample was tested for its glucose level. Food was withdrawn from the animals for the first four hours after dosing. At the end of the study, the animals were humanely euthanized by carbon-dioxide asphyxiation.

[1] = Cleavable nature of GLP-1 conjugate in aqueous media (50 mM Tris, pH 10, overnight at 50° C.), SDS-PAGE / reverse phase HPLC; format: physicochemical; conditions: 50 mM Tris solution
Protocol: The column was a 100 mm×2.1 mm ID Betasil C18 column with 5 μm particles, available from Thermo Electron Corp. Reverse phase HPLC used a mobile phase of 0.1% TFA in deionized water (solution C) and 0.1% TFA in acetonitrile (solution D) conducted at 37° C. The gradient used for reverse phase HPLC was as follows: for time 0.00 to 20.00 minutes, 35% of the mobile phase contained solution D; for time 20.00 to 21.00 minutes, 55% of the mobile phase contained solution D; for time 21.00 to 23.00 minutes, 80% of the mobile phase contained solution D; for time 23.00 to 24.00 minutes, 80% of the mobile phase contained solution D; for time 24.00 to 25.00 minutes, 35% of the mobile phase contained solution D; for time 25.00 and above, 35% of mobile phase contained solution D.

Substance | blood glucose-lowering effect (diabetic db/db mice) | PD effect when compared to the 20 kiloDalton PEG conjugate (diabetic db/db mice) | release of GLP-1 from the conjugate [1] | clearance from the mouse (from pharmacodynamic measurements) (diabetic db/db mice; subcutaneous)
G2PEG2Fmoc20K-Lys-GLP-1: G2PEG2Fmoc20k-NHS covalently and releasably attached to a lysine position of GLP-1 (HAEGTFTSDVSSYLEGQAAKEFIAWLVKGR; ends and bridges not checked; also: releasable G2PEG2Fmoc20K PEG on a lysine; UniProt P01275 98-127, looked up) | confirmed | – | – | –
G2PEG2Fmoc40K-Lys-GLP-1: G2PEG2Fmoc40k-NHS covalently and releasably attached to a lysine position of GLP-1 (HAEGTFTSDVSSYLEGQAAKEFIAWLVKGR; ends and bridges not checked; also: releasable G2PEG2Fmoc40K PEG on a lysine; UniProt P01275 98-127, looked up) | confirmed | small but extended PD effect | – | –
G2PEG2Fmoc40k-N^ter-GLP-1 | – | small but extended PD effect | complete release | –
Glucagon-like Peptide I (7-36, “GLP-1”) [reference compound] | confirmed | – | – | cleared rapidly
